The source of these data is patent US5208326A, “8-hydroxy-2H-dibenz(b,f)azepin-2-one dyes” (Miles Inc., priority 1991, dated 1993).

One series deals with β-galactosidase. As to the kind of experiment: Substrate evaluation: hydrolysis by β-galactosidase in solution. The format is biochemical.
A short description of series [1]: pKa of the acid/base indicator dye. Type of series: physicochemical.
[2] abbreviates: 50 mM phosphate buffer pH 7.4 (containing no magnesium).

On to `O=c1ccc2nc3ccc(O[C@@H]4O[C@H](CO)[C@H](O)[C@H](O)[C@H]4O)cc3ccc-2c1` [Compound 3, 8-(β-D-galactopyranosyloxy)-2H-dibenz[b,f]azepin-2-one], for which the “substrate for β-galactosidase (in words)” value in the series on β-galactosidase was “substrate for β-galactosidase”.

Regarding `O=c1ccc2nc3ccc(O)cc3ccc-2c1` [Compound 1, 8-Hydroxy-2H-dibenz[b,f]azepin-2-one], in series [1], the pKa – broadly, the negative logarithm of the acid dissociation constant – worked out at 6.34.

As for `O=C1C=CC2=Nc3ccc(O[C@@H]4O[C@H](CO)[C@H](O)[C@H](O)[C@H]4O)cc3CCC2=C1` [Compound 4, 8-(β-D-galactopyranosyloxy)-10,11-dihydro-2H-dibenz [b,f]azepin-2-one], the “substrate for β-galactosidase (in words)” value with β-galactosidase is on record as “substrate for β-galactosidase”. Moreover, in the series with β-galactosidase (setting [2]), the Km – broadly, the substrate concentration at which the rate is half of its maximum – came out at 96 µM and the “rate (Kcat) of hydrolysis to give 2” value was 7.07×10^3 mol. min^-1 /mol. active site.

`O=C1C=CC2=Nc3ccc(O)cc3CCC2=C1` [Compound 2, 8-Hydroxy-10,11-dihydro-2H-dibenz[b,f]azepin-2-one] displayed a pKa in series [1] of 6.95.
